For this assay, the system named is Plasmodium berghei. Put plainly: Luciferase/luciferin-expressing antifolate-resistant parasites were used to infect a culture of HepG2 cells that were pre-incubated with compounds. Infected hepatocytes emit light due to the luciferase reaction. Assay results are presented as the percent inhibition of light emission compared to control. […]. In kind it is functional. As to conditions: sporozoite; for IC90: read-out: LUCIFERASE INFECTION ASSAY - IC90.

Each structure is given as a SMILES string. Some results are limits rather than exact numbers.

The results in this text go back to ChEMBL document CHEMBL4483862, “Open-source discovery of chemical leads for next-generation chemoprotective antimalarials” (2018).

For orientation: IC50 means the point on the concentration scale where inhibition reaches its midpoint. As usually defined, the IC90 is the point of the concentration-response curve where the effect stands at 90%. On to `O=C(Nc1ccc(OC(F)(F)F)cc1)c1ccc2c(c1)no[n+]2[O-]`, for which the 90% effect concentration (IC90) is 7.89 µM. Further, the IC50 (HEPG2TOX_HILL_SLOPE 13, HEPG2TOX_R_SQUARED 0.448, PBLUC_HILL_SLOPE 2.82, PBLUC_R_SQUARED 0.324, read-out: LUCIFERASE INFECTION ASSAY - IC50) turned out to be 3.62 µM.

Regarding `CCOc1c(Br)cc(/C=C2/C(=O)N(C)c3ccccc32)cc1OC`, the IC90 is over 10 µM. Also, under “HEPG2TOX_HILL_SLOPE 13, HEPG2TOX_R_SQUARED 0.388, read-out: LUCIFERASE INFECTION ASSAY - IC50”, the IC50 was over 10 µM.

As for `CCC(C)(C)NS(=O)(=O)c1ccc(-n2ncc(Cl)c(Cl)c2=O)cc1`, the IC90 amounted to 1.45 µM. In addition, the IC50 (HEPG2TOX_HILL_SLOPE 13.4, HEPG2TOX_R_SQUARED 0.912, PBLUC_HILL_SLOPE 13.3, PBLUC_R_SQUARED 0.601, read-out: LUCIFERASE INFECTION ASSAY - IC50) was found to be 1.23 µM.

On to `CN(C)c1ccc(CNCCC(c2ccc(F)cc2)c2ccco2)cc1` (stereo not drawn), for which the IC90 turned out to be 1.83 µM. The IC50 (HEPG2TOX_HILL_SLOPE 13.3, HEPG2TOX_R_SQUARED 0.508, PBLUC_HILL_SLOPE 4.7, PBLUC_R_SQUARED 0.649, read-out: LUCIFERASE INFECTION ASSAY - IC50) was determined as 1.15 µM.

In the case of `O=C(Nc1ncc(Cc2ccc(F)c(F)c2)s1)c1ccc2nc[nH]c2c1`, the IC90 was over 10 µM. In addition, the 50% inhibitory concentration (IC50) (HEPG2TOX_HILL_SLOPE 13.7, HEPG2TOX_R_SQUARED 0.959, PBLUC_HILL_SLOPE 2.28, PBLUC_R_SQUARED 0.72, read-out: LUCIFERASE INFECTION ASSAY - IC50) was 4.35 µM.

Consider `CS(=O)(=O)c1ncc(Cl)c(C(=O)Nc2nc(-c3cc(F)ccc3F)cs2)n1`, for which the concentration for an effect of 90% (IC90) was found to be 6.15 µM. For the setting “HEPG2TOX_HILL_SLOPE 13.3, HEPG2TOX_R_SQUARED 0.702, PBLUC_HILL_SLOPE 67.7, PBLUC_R_SQUARED 0.588, read-out: LUCIFERASE INFECTION ASSAY - IC50”, the 50% inhibitory concentration (IC50) came out at 5.95 µM.

As for `O=C1Cn2c(c(-c3nc4ccccc4[nH]3)c(=O)c3ccccc32)N1`, the IC90 is 9.39 µM. Further, the half-inhibitory concentration (IC50) (HEPG2TOX_HILL_SLOPE 13.7, HEPG2TOX_R_SQUARED 0.894, PBLUC_HILL_SLOPE 11.3, PBLUC_R_SQUARED 0.46, read-out: LUCIFERASE INFECTION ASSAY - IC50) came to 7.72 µM.

Consider `CNC(=O)c1cccc(-c2ccc3ncc(-c4ccc(CO)cc4)n3n2)c1`, for which the IC90 was over 10 µM. Further, the IC50 (HEPG2TOX_HILL_SLOPE 13.1, HEPG2TOX_R_SQUARED 0.574, PBLUC_HILL_SLOPE 1.06, PBLUC_R_SQUARED 0.813, read-out: LUCIFERASE INFECTION ASSAY - IC50) is 1.39 µM.

`COc1ccc(-c2nn(-c3ccccc3)cc2/C=N/Nc2ncc(C(F)(F)F)cc2Cl)cc1OC`: the IC90 came out at 2.33 µM. The IC50 (HEPG2TOX_HILL_SLOPE 13.4, HEPG2TOX_R_SQUARED 0.529, PBLUC_HILL_SLOPE 3.64, PBLUC_R_SQUARED 0.734, read-out: LUCIFERASE INFECTION ASSAY - IC50) was determined as 1.27 µM.

As to `O=c1c(C(F)(F)F)cccn1Cc1csc(COc2ccc(Cl)cc2)n1`, the IC90 was over 10 µM. The IC50 (HEPG2TOX_HILL_SLOPE 13.6, HEPG2TOX_R_SQUARED 0.877, PBLUC_HILL_SLOPE 2.65, PBLUC_R_SQUARED 0.537, read-out: LUCIFERASE INFECTION ASSAY - IC50) is 7.31 µM.

As to `CC(=O)OC1CCC2(C)C(CCC3C4CCC(C(C)C(=O)OCC(=O)c5ccccc5)C4(C)CC(=O)C32)C1` (stereo not drawn), the concentration for an effect of 90% (IC90) worked out at 0.271 µM. Further, the IC50 (HEPG2TOX_HILL_SLOPE 12.9, HEPG2TOX_R_SQUARED 0.919, PBLUC_HILL_SLOPE 10.6, PBLUC_R_SQUARED 0.537, read-out: LUCIFERASE INFECTION ASSAY - IC50) is 0.22 µM.

`Cc1cc(C(=O)C(C)OC(=O)CCn2cnc3c(cnn3C)c2=O)c(C)n1-c1ccc(Cl)cc1` (stereo not drawn): the concentration for an effect of 90% (IC90) was over 10 µM. Besides, for the setting “HEPG2TOX_HILL_SLOPE 12.8, HEPG2TOX_R_SQUARED 0.861, read-out: LUCIFERASE INFECTION ASSAY - IC50”, the IC50 was over 10 µM.

For the compound `O=[N+]([O-])c1ccc(NC2C=CS(=O)(=O)C2)c(Cl)c1` (stereo not drawn), the IC90 was over 10 µM. Also, the IC50 (HEPG2TOX_HILL_SLOPE 13.7, HEPG2TOX_R_SQUARED 0.786, read-out: LUCIFERASE INFECTION ASSAY - IC50) is over 10 µM.

On to `CCN(CCO)c1ccc(Nc2cc(C(=O)Nc3ccccc3)ncn2)cc1`, for which the IC90 is 7.92 µM. For the same compound, the IC50 (HEPG2TOX_HILL_SLOPE 13.5, HEPG2TOX_R_SQUARED 0.28, PBLUC_HILL_SLOPE 1.45, PBLUC_R_SQUARED 0.807, read-out: LUCIFERASE INFECTION ASSAY - IC50) turned out to be 1.74 µM.

Consider `CCCCCCCCCCCCCCCCCC1=[N+](c2ccccc2)C(Nc2ccccc2)CN1c1ccccc1` (stereo not drawn), for which the IC90 is over 5.61 µM. Further, the IC50 (HEPG2TOX_HILL_SLOPE 13, HEPG2TOX_R_SQUARED 0.218, read-out: LUCIFERASE INFECTION ASSAY - IC50) is over 5.61 µM.

On to `CN1CCN(c2ccc(NC(=O)c3cc4c(s3)-c3ccccc3CC4)cn2)CC1`, for which the 90% effect concentration (IC90) turned out to be 7.61 µM. Further, the IC50 (HEPG2TOX_HILL_SLOPE 13, HEPG2TOX_R_SQUARED 0.777, PBLUC_HILL_SLOPE 77.5, 23.4, PBLUC_R_SQUARED 0.0252, 0.733, read-out: LUCIFERASE INFECTION ASSAY - IC50) worked out at 7.13 µM.

Take `COc1ccc(NS(=O)(=O)c2cc(NCc3ccccc3C)cc(C(=O)NCCN(C)C)c2)cc1`: the IC90 is over 6.64 µM. The 50% inhibitory concentration (IC50) (HEPG2TOX_HILL_SLOPE 13.2, HEPG2TOX_R_SQUARED 0.729, PBLUC_HILL_SLOPE 3.39, PBLUC_R_SQUARED 0.479, read-out: LUCIFERASE INFECTION ASSAY - IC50) was 4.55 µM.

With `CCN(CC(=O)Nc1ccccc1C(F)(F)F)CC(=O)N1CCc2ccccc21`, the IC90 is 7.42 µM. The half-inhibitory concentration (IC50) (HEPG2TOX_HILL_SLOPE 12.9, HEPG2TOX_R_SQUARED 0.752, PBLUC_HILL_SLOPE 284, PBLUC_R_SQUARED 0.135, read-out: LUCIFERASE INFECTION ASSAY - IC50) was 7.36 µM.

Consider `COc1ccc(/C=C(/C(=O)Nc2ccc(C)c(C)c2)c2nc3ccccc3s2)cc1`, for which the concentration for an effect of 90% (IC90) is 3.66 µM. In addition, under “HEPG2TOX_HILL_SLOPE 13.8, HEPG2TOX_R_SQUARED 0.904, PBLUC_HILL_SLOPE 19.4, PBLUC_R_SQUARED 0.196, read-out: LUCIFERASE INFECTION ASSAY - IC50”, the 50% inhibitory concentration (IC50) is 3.27 µM.

Consider `O=C1C(=O)N(Cc2cccc(Cl)c2)c2c1cccc2C(F)(F)F`, for which the concentration for an effect of 90% (IC90) amounted to 6.09 µM. Further, the half-maximal inhibitory concentration (IC50) (HEPG2TOX_HILL_SLOPE 13.2, HEPG2TOX_R_SQUARED 0.969, PBLUC_HILL_SLOPE 2.5, PBLUC_R_SQUARED 0.616, read-out: LUCIFERASE INFECTION ASSAY - IC50) stood at 2.53 µM.

With `O=C(CN1CCN(c2ccc(C(F)(F)F)cn2)CC1)N1CCC(c2nc3ccccc3s2)CC1`, the IC90 was over 10 µM. For the setting “HEPG2TOX_HILL_SLOPE 13.7, HEPG2TOX_R_SQUARED 0.915, PBLUC_HILL_SLOPE 1.27, PBLUC_R_SQUARED 0.698, read-out: LUCIFERASE INFECTION ASSAY - IC50”, the 50% inhibitory concentration (IC50) turned out to be 3.43 µM.

For the compound `CC(C)Oc1ccc(S(=O)(=O)N2CCOCC2)cc1NC(=O)c1cc(-c2ccccc2)n[nH]1`, the IC90 amounted to 4.44 µM. Also, the IC50 (HEPG2TOX_HILL_SLOPE 13.1, HEPG2TOX_R_SQUARED 0.378, PBLUC_HILL_SLOPE 12.6, PBLUC_R_SQUARED 0.276, read-out: LUCIFERASE INFECTION ASSAY - IC50) was 3.73 µM.

As for `Fc1cccc(-c2cc3c(Nc4ccccn4)nccc3[nH]2)c1`, the 90% effect concentration (IC90) came to 9.13 µM. Besides, where the note is “HEPG2TOX_HILL_SLOPE 13.8, HEPG2TOX_R_SQUARED 0.872, PBLUC_HILL_SLOPE 30.4, PBLUC_R_SQUARED 0.0497, read-out: LUCIFERASE INFECTION ASSAY - IC50”, the IC50 turned out to be 8.5 µM.

In the case of `COc1ccc(CN2C(=O)c3ccccc3C(C=NNc3nc(=O)cc(C)[nH]3)C2=O)cc1` (stereo not drawn), the IC90 is 3.8 µM. Besides, the IC50 (HEPG2TOX_HILL_SLOPE 12.8, HEPG2TOX_R_SQUARED 0.611, PBLUC_HILL_SLOPE 3.06, PBLUC_R_SQUARED 0.688, read-out: LUCIFERASE INFECTION ASSAY - IC50) amounted to 1.85 µM.

For the compound `CC(C)c1ccc(NC(=O)Nc2ccc3nc(-c4ccccn4)nn3c2)cc1`, the concentration for an effect of 90% (IC90) worked out at 4.2 µM. Further, for the setting “HEPG2TOX_HILL_SLOPE 13, HEPG2TOX_R_SQUARED 0.696, PBLUC_HILL_SLOPE 14.3, PBLUC_R_SQUARED 0.36, read-out: LUCIFERASE INFECTION ASSAY - IC50”, the half-inhibitory concentration (IC50) was 3.6 µM.

With `CCCN1C/C(=C/c2csnn2)C(=O)/C(=C/c2csnn2)C1`, the IC90 is over 10 µM. Besides, the half-inhibitory concentration (IC50) (HEPG2TOX_HILL_SLOPE 13.3, HEPG2TOX_R_SQUARED 0.713, read-out: LUCIFERASE INFECTION ASSAY - IC50) was over 10 µM.

As to `CN(C)c1ccc(-c2cc3c(cn2)nc(NCc2ccccc2F)n3C)cc1`, the IC90 is over 10 µM. For the same compound, under “HEPG2TOX_HILL_SLOPE 12.8, HEPG2TOX_R_SQUARED 0.633, PBLUC_HILL_SLOPE 3.52, PBLUC_R_SQUARED 0.567, read-out: LUCIFERASE INFECTION ASSAY - IC50”, the IC50 came out at 5.77 µM.

Consider `COc1cccc(CNC(=O)Nc2ccc3nc(Cc4ccccc4)nn3c2)c1`, for which the IC90 was over 10 µM. The half-maximal inhibitory concentration (IC50) (HEPG2TOX_HILL_SLOPE 13.6, HEPG2TOX_R_SQUARED 0.936, PBLUC_HILL_SLOPE 1.17, PBLUC_R_SQUARED 0.525, read-out: LUCIFERASE INFECTION ASSAY - IC50) came to 2.14 µM.

For `Oc1ccc(/C=C/c2ccc3cccc(O)c3n2)cc1`, the concentration for an effect of 90% (IC90) is 5.07 µM. The half-inhibitory concentration (IC50) (HEPG2TOX_HILL_SLOPE 13.8, HEPG2TOX_R_SQUARED 0.969, PBLUC_HILL_SLOPE 21.8, PBLUC_R_SQUARED 0.339, read-out: LUCIFERASE INFECTION ASSAY - IC50) came to 4.58 µM.
